Source: patent US8835429B2, “Pyrimidine compounds, their use as mTOR kinase and Pl3 kinase inhibitors, and their syntheses” (Wyeth LLC, priority 2009, dated 2014)
Read-outs that look alike come from different tables or passages of the source.

Legend:
MDA468 = assay: In vitro cell growth assay (MTS), MDA468; type: cell-based; settings: 72 h, human breast line MDA468, three days after drug treatment, read-out: MDA IC50
PI3K-gamma = PI3K-gamma (Homo sapiens, UniProt P48736); assay: PI3K-gamma fluorescence polarization assay; type: biochemical; settings: 20 μM PIP2, 25 μM ATP; read-out: PI3Kγ IC50
PI3K-gamma, sequence (P48736 whole entry, species assumed): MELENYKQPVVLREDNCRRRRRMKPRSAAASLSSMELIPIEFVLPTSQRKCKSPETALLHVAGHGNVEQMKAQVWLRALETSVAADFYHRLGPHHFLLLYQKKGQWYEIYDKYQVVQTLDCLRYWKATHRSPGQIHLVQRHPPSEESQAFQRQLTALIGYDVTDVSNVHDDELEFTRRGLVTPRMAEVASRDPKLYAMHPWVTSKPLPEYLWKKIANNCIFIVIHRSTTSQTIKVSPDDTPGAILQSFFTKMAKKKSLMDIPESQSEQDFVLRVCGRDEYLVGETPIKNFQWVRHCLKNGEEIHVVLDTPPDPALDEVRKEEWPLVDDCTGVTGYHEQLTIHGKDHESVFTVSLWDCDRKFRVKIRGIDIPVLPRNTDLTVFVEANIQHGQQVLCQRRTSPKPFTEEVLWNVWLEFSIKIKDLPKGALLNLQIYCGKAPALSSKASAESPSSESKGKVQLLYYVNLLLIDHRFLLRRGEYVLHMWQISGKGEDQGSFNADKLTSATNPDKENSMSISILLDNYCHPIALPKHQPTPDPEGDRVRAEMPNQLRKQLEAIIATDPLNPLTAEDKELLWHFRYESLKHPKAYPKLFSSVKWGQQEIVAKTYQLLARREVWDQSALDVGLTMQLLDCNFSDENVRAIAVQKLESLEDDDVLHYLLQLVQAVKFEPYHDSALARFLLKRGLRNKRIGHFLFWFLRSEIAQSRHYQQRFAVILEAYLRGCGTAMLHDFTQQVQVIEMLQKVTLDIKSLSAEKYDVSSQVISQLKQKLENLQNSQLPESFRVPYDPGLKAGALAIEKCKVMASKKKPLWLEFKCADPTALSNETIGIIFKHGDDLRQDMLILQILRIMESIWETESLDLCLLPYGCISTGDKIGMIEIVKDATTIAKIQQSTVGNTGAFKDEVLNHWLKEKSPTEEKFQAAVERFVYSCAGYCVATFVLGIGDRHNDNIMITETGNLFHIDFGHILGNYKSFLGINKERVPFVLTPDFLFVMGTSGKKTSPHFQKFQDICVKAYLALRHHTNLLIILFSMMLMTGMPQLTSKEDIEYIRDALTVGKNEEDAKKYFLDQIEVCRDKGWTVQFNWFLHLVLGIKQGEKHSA
Summary of the method: (§1)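 PIP2 (diC8) and ATP substrate with PI3K in 20 mM HEPES pH 7.5, 2 mM MgCl2, 0.05% CHAPS, 0.01% βME; 1% DMSO final; 30–60 min reaction. Stopped with EDTA plus GST-GRP (70 nM) and TAMRA probe (10 nM); FP (mP) read after 30–90 min, with no-enzyme controls.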

mTOR [1] = target: T1, mTOR (Homo sapiens, UniProt P42345); assay: mTOR enzyme assay (DELFIA, purified FLAG-TOR, His6-S6K substrate); type: biochemical; design: FLAG; settings: 100 μM ATP, 2 hours
PI3K-alpha = PI3K-alpha (Homo sapiens, UniProt P42336); assay: PI3K-alpha fluorescence polarization assay; type: biochemical; settings: 20 μM PIP2, 25 μM ATP; read-out: PI3Kα IC50
PI3K-alpha, sequence (P42336 whole entry, species assumed): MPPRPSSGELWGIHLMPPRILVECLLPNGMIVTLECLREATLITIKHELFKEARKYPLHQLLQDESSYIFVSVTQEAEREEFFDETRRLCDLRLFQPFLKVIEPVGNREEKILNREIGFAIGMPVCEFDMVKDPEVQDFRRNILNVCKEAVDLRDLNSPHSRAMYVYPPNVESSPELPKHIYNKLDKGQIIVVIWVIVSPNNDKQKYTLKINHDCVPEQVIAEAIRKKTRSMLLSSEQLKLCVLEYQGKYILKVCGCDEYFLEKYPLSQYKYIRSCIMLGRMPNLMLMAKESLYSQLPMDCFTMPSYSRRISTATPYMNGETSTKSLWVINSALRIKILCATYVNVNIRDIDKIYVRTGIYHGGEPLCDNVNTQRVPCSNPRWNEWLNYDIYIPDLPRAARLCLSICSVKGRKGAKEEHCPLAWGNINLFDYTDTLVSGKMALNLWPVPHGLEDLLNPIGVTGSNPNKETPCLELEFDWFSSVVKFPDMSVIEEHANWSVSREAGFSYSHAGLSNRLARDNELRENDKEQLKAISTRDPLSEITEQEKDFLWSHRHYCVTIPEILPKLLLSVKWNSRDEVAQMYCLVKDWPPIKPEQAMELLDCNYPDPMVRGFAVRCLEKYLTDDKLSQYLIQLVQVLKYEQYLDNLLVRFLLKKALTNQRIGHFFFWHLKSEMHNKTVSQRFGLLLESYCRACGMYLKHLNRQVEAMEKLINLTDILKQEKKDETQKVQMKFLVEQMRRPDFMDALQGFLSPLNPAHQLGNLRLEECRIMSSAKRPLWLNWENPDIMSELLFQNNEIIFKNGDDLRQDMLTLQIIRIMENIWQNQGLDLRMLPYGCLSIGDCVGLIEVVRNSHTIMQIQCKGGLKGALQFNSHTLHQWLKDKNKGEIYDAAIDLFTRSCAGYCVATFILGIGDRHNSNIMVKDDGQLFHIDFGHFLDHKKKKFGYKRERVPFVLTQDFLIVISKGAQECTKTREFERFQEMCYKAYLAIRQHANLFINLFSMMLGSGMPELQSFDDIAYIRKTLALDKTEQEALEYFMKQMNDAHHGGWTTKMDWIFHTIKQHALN
PI3K-alpha, sequence (P27986 whole entry partner, species assumed): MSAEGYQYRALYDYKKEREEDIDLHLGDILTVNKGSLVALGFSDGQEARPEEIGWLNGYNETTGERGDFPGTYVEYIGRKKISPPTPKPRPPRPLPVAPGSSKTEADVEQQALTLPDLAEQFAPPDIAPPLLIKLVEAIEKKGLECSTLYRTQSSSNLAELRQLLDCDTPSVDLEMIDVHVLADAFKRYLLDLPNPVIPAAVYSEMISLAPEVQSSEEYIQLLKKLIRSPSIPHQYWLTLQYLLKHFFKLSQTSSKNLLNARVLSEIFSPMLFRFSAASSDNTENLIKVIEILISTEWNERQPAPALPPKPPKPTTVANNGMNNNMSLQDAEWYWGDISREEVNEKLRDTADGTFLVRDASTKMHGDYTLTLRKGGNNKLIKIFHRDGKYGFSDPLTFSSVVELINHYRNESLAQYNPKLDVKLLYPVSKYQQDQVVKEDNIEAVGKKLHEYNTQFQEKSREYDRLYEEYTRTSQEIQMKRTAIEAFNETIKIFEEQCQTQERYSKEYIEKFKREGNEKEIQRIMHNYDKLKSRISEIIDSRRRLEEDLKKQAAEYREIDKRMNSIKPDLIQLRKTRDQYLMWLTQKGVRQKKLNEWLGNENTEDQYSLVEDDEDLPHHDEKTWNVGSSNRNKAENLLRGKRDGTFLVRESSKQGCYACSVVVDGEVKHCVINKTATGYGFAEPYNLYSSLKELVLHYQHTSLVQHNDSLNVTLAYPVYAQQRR
Summary of the method: as §1

LNCap = assay: In vitro cell growth assay (MTS), LNCap; type: cell-based; settings: LNCaP, 72 h, human prostate line, three days after drug treatment
[2] = test system: human tumor xenograft models; settings: cited from earlier work
[3] = test system: acute lymphoblastic leukemia; settings: in vivo; cited from earlier work
hSMG-1 = hSMG-1 (Homo sapiens, UniProt Q96Q15); settings: read-out: hSMG-1 kinase activity IC50; cited from earlier work
mTOR [4] = target: T1, mTOR; settings: read-out: mTOR IC50; mTOR complexes (PI103), mTOR enzyme (ZSTK474); cited from earlier work

CN(C)Cc1ccc(NC(=O)Nc2ccc(-c3nc(N4C5CCC4COC5)cc(N4C[C@@H]5C[C@H]4CO5)n3)cc2)cc1 [1-{4-[(dimethylamino)methyl]phenyl}-3-(4-{4-[(1S,4S)-2-oxa-5-azabicyclo[2.2.1]hept-5-yl]-6-(3-oxa-8-azabicyclo[3.2.1]oct-8-yl)pyrimidin-2-yl}phenyl)urea] showed an IC50 (MDA468) of 150 nM, an IC50 (PI3K-gamma) of no less than 10000 nM and an IC50 (mTOR [1]) of 16 nM. For the same compound, the IC50 (PI3K-alpha) was 1240 nM and the IC50 (LNCap) was 60 nM.

Compound C[C@@H]1COCCN1c1cc(N2C3CCC2COC3)nc(-c2ccc(NC(=O)Nc3ccc(C(=O)N(C)C)cc3)cc2)n1 [N,N-dimethyl-4-{[(4-{4-[(3R)-3-methylmorpholin-4-yl]-6-(3-oxa-8-azabicyclo[3.2.1]oct-8-yl)pyrimidin-2-yl}phenyl)carbamoyl]amino}benzamide] has an IC50 (MDA468) of 0.8 nM, an IC50 (PI3K-gamma) of 1640 nM and an IC50 (mTOR [1]) of 0.44 nM. The IC50 (PI3K-alpha) was 108 nM and the IC50 (LNCap) was no more than 0.8 nM.

For Cn1c(=O)n(-c2ccc(C(C)(C)C#N)cc2)c2c3cc(-c4cnc5ccccc5c4)ccc3ncc21 [NVP-BEZ-235, 2-methyl-2-(4-(3-methyl-2-oxo-8-(quinolin-3-yl)-2,3-dihydro-1H-imidazo[4,5-c]quinolin-1-yl)phenyl)propanenitrile], the “activity against human tumor models” value ([2]; PC-3 and U-87 xenografts) is given as “demonstrated activity”.

For Oc1cccc(-c2nc(N3CCOCC3)c3oc4ncccc4c3n2)c1 [PI103, 3-(4-(4-morpholinyl)pyrido[3′,′:4,5]furo[3,2-d]pyrimidin-2-yl)phenol], the “activity against human tumor models” value ([2]; I.P. dosing in mice, U87MG, PC3, MDA-MB-468, MDA-MB-435, HCT 116, SKOV3, IGROV-1) is given as “demonstrated activity”.

In the case of CO[C@H]1C[C@@H]2CC[C@@H](C)[C@@](O)(O2)C(=O)C(=O)N2CCCC[C@H]2C(=O)O[C@H]([C@H](C)C[C@@H]2CC[C@@H](OC(=O)C(C)(CO)CO)[C@H](OC)C2)CC(=O)[C@H](C)/C=C(\C)[C@@H](O)[C@@H](OC)C(=O)[C@H](C)C[C@H](C)/C=C/C=C/C=C/1C [Torisel], the “activity in NOS/SCID xenograft mouse model of acute lymphoblastic leukemia” value [3] is given as “active”.

For COC[C@H]1OC(=O)c2coc3c2[C@@]1(C)C1=C(C3=O)[C@@H]2CCC(=O)[C@@]2(C)C[C@H]1OC(C)=O [Wortmannin], the IC50 (hSMG-1) is listed as roughly 60 nM.

In the case of FC(F)c1nc2ccccc2n1-c1nc(N2CCOCC2)nc(N2CCOCC2)n1 [ZSTK474, 2-(2-difluoromethylbenzoimidazol-1-yl)-4,6-dimorpholino-1,3,5-triazine], the “tumor growth in mouse human xenograft cancer models” value ([2]; chronic oral administration, 400 mg/kg, A549, PC-3, WiDr) is given as “completely inhibited growth” and the IC50 (mTOR [4]) is given as greater than 10 µM.
